Reference: patent US10597368B2, “Syringolin analogues and methods of making and using same” (BROWN UNIVERSITY, priority 2015, dated 2020)

Experiments:
RPMI-8226 = assay: NCI dose-dependent growth inhibition, RPMI-8226; assay type: cell-based; conditions: Homo sapiens; RPMI-8226, 48-h exposure
Text: (§1) The three compounds were particularly active against leukemia cell lines. […] Without wishing to be limited by any theory, such differences in biochemical and biological patterns may be explained by differences in the cell permeabilities or stabilities of the two compounds. […] Data provided by the National Cancer Institute (NCI): […] The optical density of the test well after a 48-h period of exposure to test drug is T, the optical density at time zero is T0, and the control optical density is C. The “50” is called the […] parameter that can have values from +100 to -100.

SR = assay: NCI dose-dependent growth inhibition, SR; assay type: cell-based; conditions: Homo sapiens, 48-h exposure
Text: as §1

K-562 = assay: NCI dose-dependent growth inhibition, K-562; assay type: cell-based; conditions: Homo sapiens, K562; K-562, 48-h exposure
Text: as §1

MOLT-4 = assay: NCI dose-dependent growth inhibition, MOLT-4; assay type: cell-based; conditions: Homo sapiens; MOLT-4, 48-h exposure
Text: as §1

HL-60 = assay: NCI dose-dependent growth inhibition, HL-60; assay type: cell-based; conditions: Homo sapiens; HL-60, 48-h exposure
Text: as §1

leukemia cell lines = assay: NCI dose-dependent growth inhibition, leukemia cell lines overall; assay type: cell-based; conditions: as much as, fold more potent
Text: as §1

[1] = tested on: 60 different cancer cell lines; assay: NCI single-dose growth assay with 60 cancer cell lines; assay type: cell-based; conditions: 10 μM, average over the panel of cell lines
Method: FIG. 6 illustrates the in vitro inhibition results for compound 1, while FIG. 7 illustrates the in vitro inhibition results for compound 13. FIG. 8 illustrates the in vitro inhibition results for compound 14, while FIG. 9 illustrates the in vitro inhibition results for compound 15. FIG. 10 illustrates the in vitro inhibition results for compound 16. […] Specifically, cell lines incubated in media with 10 μM of compound 15 grew at an average of 30% of those incubated in media without compound. The mean growth of the cell lines in media with the same concentration of compound 16 was approximately 71% of those in negative control experiments.

[2] = biological target: T1, human 20S proteasome (hs20S), chymotrypsin-like β5-subunits (Homo sapiens, UniProt P20618+P28074); assay: In vitro 20S peptidase inhibition kinetics, chymotrypsin-like activity (Suc-LLVY-AMC); assay type: biochemical; conditions: second-order rate constant, Suc-LLVY-AMC substrate, 37° C.
T1 construct: purchased R&D
Method: In vitro 20S peptidase inhibition assays were recorded in a 384-well plate at a SpectraMax M5 (Molecular devises) plate-reader. Therefore, 5 nM human 20S (R&D) was incubated in buffer R (50 mM HEPES-KOH, pH 7.5, 0.5 mM EDTA) with 100 μM of the fluorogenic peptide substrates Suc-LLVY-AMC or Boc-LRR-AMC. Reactions were started by adding various amounts of inhibitors (5 nM to 500 μM) to a final volume of 30 μL and peptide hydrolysis was continuously monitored for 90 min by changes in fluorescence (excitation 380 nm; emission 440 nm) at 37° C. The kobs values were determined by fitting the raw data to equation (1). The slopes of the plots of kobsversus I gave an apparent value of kobs/I, also referred to as kinact/Ki for an irreversible inhibitor, which was then corrected by equation (2) to compensate for the effect of substrate competition, where app is the apparent value at different inhibitor concentrations.
Using purified human 20S proteasome (hs20S) and a fluorogenic substrate (Suc-LLVY-AMC), in vitro assays were performed to systematically assess proteasome inhibition by the syringolin analogues. The choice of substrate was based on the fact that it is preferentially acted upon by the chymotrypsin-like β5-subunits of the proteasome due to the aromatic tyrosine residue at the scissile bond (i.e., P1 position).
From measurements of the rates of hydrolysis of the fluorogenic substrate by the proteasome in the presence of increasing concentrations of each inhibitor, second-order rate constants kin/Ki (M^−1 s^−1) were determined (Table 1), which reflect both the affinity of the non-covalent binding (Ki) and the rate of the chemical reaction with the enzyme (kin). All of the syringolin analogues were capable in inhibiting the chymotrypsin-like activity of hs20S. Without wishing to be limited by any theory, consistent with the design predictions, the most significant contributor to the apparent second-order rate constants of the compounds was their binding affinity (Ki) rather than the rates of inhibition.
In vitro 20S peptidase inhibition assays were recorded in a 384-well plate at a SpectraMax M5 (Molecular Devices) plate-reader. Therefore, 5 nM human 20S (R&D) was incubated in buffer R (50 mM HEPEs-KOH, pH 7.5, 0.5 mM EDTA) with 100 μM of the fluorogenic peptide substrate Suc-LLVY-AMC. Reactions were started by adding various amounts of inhibitors 5 nM to 500 μM) to a final volume of 30 μL and peptide hydrolysis was continuously monitored for 90 minutes by changes in fluorescence (excitation 380 nm; emission 440 nm) at 37 degrees Celsius. The kobs values were determined by fitting the raw data to equation 1. The slopes of the plots of kobs versus I gave an apparent value of kob/I, also referred to as kinact/Ki for an irreversible inhibitor, which was then corrected by equation 2 to compensate for the effect of substrate competition, where app is the apparent value at different inhibitor concentrations.

Row | SMILES | GI50 (RPMI-8226) [µM] | GI50 (SR) [µM] | GI50 (K-562) [µM] | GI50 (MOLT-4) [µM] | GI50 (HL-60) [µM] | potency relative to syringolin B methyl ester (1) against the leukemia cell lines (leukemia cell lines) [fold] | mean growth of cell lines relative to media without compound [1] | hs20S kin/Ki [2]
1 | COC(=O)[C@@H](NC(=O)N[C@H](C(=O)N[C@H]1CCCCNC(=O)/C=C/[C@H](C(C)C)NC1=O)C(C)C)C(C)C [Compound 1, Syringolin B Methyl Ester, reference compound] | 3.97 | 5.13 | 6.12 | 4.73 | 5.41 | – | – | –
2 | COC(=O)[C@@H](NC(=O)N[C@@H](Cc1ccccc1)C(=O)N[C@H]1CCCCNC(=O)/C=C/[C@H](Cc2c[nH]c3ccccc23)NC1=O)C(C)C [Compound 16] | 0.343 | 0.453 | 2.94 | 0.599 | 1.29 | ≤ 11.5 | approximately 71% | –
3 | COC(=O)[C@@H](NC(=O)N[C@@H](Cc1ccccc1)C(=O)N[C@H]1CCCCNC(=O)/C=C/[C@H](Cc2ccccc2)NC1=O)C(C)C [Compound 15, (S)-methyl 2-(3-((S)-1-(((5S,8S,E)-5-benzyl-2,7-dioxo-1,6-diazacyclododec-3-en-8-yl)amino)-1-oxo-3-phenylpropan-2-yl)ureido)-3-methylbutanoate] | 2.72 | 2.78 | 14.6 | 3.32 | 4.34 | – | 30% | 4,199 M^−1s^−1
